The record followed here is ChEMBL document CHEMBL4725292 (J Med Chem, 2020).

The test system of data set [1] is Blood. Briefly: Inhibition of LPS-induced TNFalpha production in human whole blood preincubated for 30 mins followed by LPS addition and measured after overnight incubation by mesoscale assay. The data set is classed as functional, tissue-based.
The test system of data set [2] is Blood. Briefly: Inhibition of LPS-induced IL6 production in human whole blood preincubated for 30 mins followed by LPS addition and measured after overnight incubation by mesoscale assay. The data set is classed as functional, tissue-based.
In data set [3] the test system is THP-1. Briefly: Antiproliferative activity against human THP-1 cells after 72 hrs by cell titer glo assay. The data set is classed as functional, cell-based. To be noted: THP-1, 72 h.
For data set [4], the system named is MV4-11. Briefly: Antiproliferative activity against human MV4-11 cells after 72 hrs by cell titer glo assay. The data set is classed as functional, cell-based. To be noted: MV4-11, 72 h. (In general: Cellular ATP, detected with luciferase, serves as a proxy for viable cell number.)
Data set [5] deals with HL-60. The data set can be described thus: Antiproliferative activity against human HL-60 cells after 72 hrs by cell titer glo assay. The data set is classed as functional, cell-based. As to conditions: HL-60, 72 h.
Data set [6] has as its system Blood. Briefly: Inhibition of LPS-induced MCP1 production in human whole blood preincubated for 30 mins followed by LPS addition and measured after overnight incubation by mesoscale assay. The data set is classed as functional, tissue-based.
Data set [7] can be described thus: Selectivity index, […] for His6-thr-tagged BRD4 BD1 (1 to 477 residues)/BD2 Y390A mutant (unknown origin) to pIC50 for LPS-induced MCP1 production in PBMC (unknown origin).
The target of data set [8] is Bromodomain-containing protein 4 (Homo sapiens, UniProt O60885, Y390A). Briefly: Displacement of Alexa Fluor 647 labelled ligand from His6-thr-tagged BRD4 BD1 (1 to 477 residues)/BD2 Y390A mutant (unknown origin) after 30 mins by TR-FRET assay. (In general: Time-resolved FRET reads energy transfer from a long-lived donor to a nearby acceptor.)
Data set [9] can be described thus: Lipophilicity, logD of the compound at pH 7.4 by chromatographic method. The data set is classed as physicochemical. As to conditions: buffer.
Data set [10] is described as follows: Inhibition of LPS-induced MCP1 production in PBMC (unknown origin). The data set is classed as functional, tissue-based.
Data set [11] has as its target Bromodomain-containing protein 4 (Homo sapiens, UniProt O60885, Y97A). Briefly: Displacement of Alexa Fluor 647 labelled ligand from His6-tagged BRD4 BD2 (1 to 477 residues)/BD1 Y97A mutant (unknown origin) after 30 mins by TR-FRET assay.
A short description of data set [12]: Permeability of the compound in pH 7.4 phosphate buffer measured after 3 hrs by artificial membrane permeability assay based HPLC analysis. The data set is classed as ADME. To be noted: for Papp at 3 h: PAMPA, pH 7.4, read-out: permeability. A general note: In PAMPA a lipid-coated filter parts donor from acceptor wells.
Data set [13] addresses T1, ATPase family AAA domain-containing protein 2 (Homo sapiens, UniProt Q6PL18).
T1 sequence (Q6PL18 whole entry): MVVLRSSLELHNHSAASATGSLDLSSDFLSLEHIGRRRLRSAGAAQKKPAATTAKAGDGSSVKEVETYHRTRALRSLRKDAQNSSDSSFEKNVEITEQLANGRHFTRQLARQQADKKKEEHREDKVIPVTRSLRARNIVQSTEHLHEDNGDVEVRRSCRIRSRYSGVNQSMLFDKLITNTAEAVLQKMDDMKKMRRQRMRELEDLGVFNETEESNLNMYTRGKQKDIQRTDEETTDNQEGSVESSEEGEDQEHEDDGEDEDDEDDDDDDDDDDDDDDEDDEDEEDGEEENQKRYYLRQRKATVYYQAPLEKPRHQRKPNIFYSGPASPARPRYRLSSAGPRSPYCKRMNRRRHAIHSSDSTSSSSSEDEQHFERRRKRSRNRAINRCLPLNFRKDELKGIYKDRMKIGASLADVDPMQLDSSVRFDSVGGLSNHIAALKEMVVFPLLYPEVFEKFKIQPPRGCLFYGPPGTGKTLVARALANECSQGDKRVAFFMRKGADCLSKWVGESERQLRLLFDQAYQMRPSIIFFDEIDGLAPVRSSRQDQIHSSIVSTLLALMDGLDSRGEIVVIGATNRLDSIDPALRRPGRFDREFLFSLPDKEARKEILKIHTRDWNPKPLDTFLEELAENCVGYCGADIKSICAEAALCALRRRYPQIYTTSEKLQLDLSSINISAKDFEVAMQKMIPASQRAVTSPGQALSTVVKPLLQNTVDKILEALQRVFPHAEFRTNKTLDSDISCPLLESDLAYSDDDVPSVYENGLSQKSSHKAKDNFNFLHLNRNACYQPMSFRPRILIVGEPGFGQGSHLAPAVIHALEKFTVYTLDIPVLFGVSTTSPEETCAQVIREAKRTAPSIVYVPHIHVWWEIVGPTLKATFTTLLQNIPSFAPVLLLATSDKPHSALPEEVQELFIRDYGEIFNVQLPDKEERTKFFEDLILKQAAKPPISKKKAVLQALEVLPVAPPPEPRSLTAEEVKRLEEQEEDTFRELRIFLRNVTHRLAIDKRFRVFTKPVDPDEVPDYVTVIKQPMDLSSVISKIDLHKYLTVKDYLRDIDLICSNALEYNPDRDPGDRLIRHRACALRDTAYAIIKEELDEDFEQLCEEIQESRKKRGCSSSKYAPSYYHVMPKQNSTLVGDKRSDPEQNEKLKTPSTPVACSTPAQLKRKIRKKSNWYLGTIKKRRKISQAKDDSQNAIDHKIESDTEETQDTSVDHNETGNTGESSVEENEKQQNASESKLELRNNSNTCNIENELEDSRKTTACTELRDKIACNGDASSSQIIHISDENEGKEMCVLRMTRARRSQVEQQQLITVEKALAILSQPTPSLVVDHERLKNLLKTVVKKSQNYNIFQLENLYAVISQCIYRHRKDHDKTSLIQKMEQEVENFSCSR
Briefly: Inhibition of ATAD2 (unknown origin) by TR-FRET assay.

In data set [14] the test system is Bromodomain-containing protein 4 (Homo sapiens), O60885 [UNDEFINED MUTATION]. Briefly: Selectivity index, […] for His6-thr-tagged BRD4 BD1 (1 to 477 residues)/BD2 Y390A mutant (unknown origin) to pIC50 for His6-tagged BRD4 BD2 (1 to 477 residues)/BD1 Y97A mutant (unknown origin).

The term IC50 denotes the point on the concentration scale where inhibition reaches its midpoint. Read a high IC50 as weaker potency. Regarding `COc1cc2c(cc1-c1c(C)noc1C)ncc1[nH]c(=O)n([C@H](C)c3ccccn3)c12`, the IC50 in data set [1] stood at 380 nM; in data set [2], 1030 nM; in data set [3], 134 nM; in [4], 127 nM; in data set [5] it was 195 nM; in data set [6], 300 nM.

For orientation: chromatographic logD means lipophilicity estimated from chromatographic retention. High values mean a more lipophilic compound, low ones a more hydrophilic compound. In the case of `Cc1cc2c(-c3ccco3)cnc(N[C@@H]3CCNC[C@H]3C(=O)NC3CCCCC3)c2[nH]c1=O`, the “Selectivity Index” value in data set [7] is 10. Besides, the IC50 in [8] is 20 nM; in data set [10], 200 nM; in data set [11], 12.6 µM. In data set [9], this compound showed a chromatographic logD of 3.12. This compound returned a permeability in data set [12] (artificial membrane, pH 7.4, 3 h, 3 h) of 19 nm/s.

As for `CO[C@@H](C)CNC(=O)[C@@H]1CNCC[C@H]1Nc1nccc2cc(C)c(=O)[nH]c12` (mixture of isomers), the IC50 in data set [8] was 7940 nM; in data set [13], greater than 39.8 µM; in data set [11], 31.6 µM. In data set [9], this compound showed a chromatographic logD of 1.08. This compound also yielded a Selectivity Index in data set [14] of 4.

Consider `Cc1cc2cccc(N[C@@H]3CCNC[C@H]3C(=O)NC3CCCCC3)c2[nH]c1=O` (racemic), for which the half-inhibitory concentration (IC50) was 3160 nM in [8] and 31.6 µM in data set [11]. This compound had a chromatographic logD in data set [9] of 2.52. The Selectivity Index in data set [14] is 10. Moreover, the Papp at 3 h in data set [12] was less than 0.3 ×10⁻⁶ cm/s.

As a reminder, the logD is lipophilicity at a set pH, counting ionised and neutral species. Lower therefore signals a more hydrophilic compound. Take `Cc1cc2c(-c3ccco3)cnc(N[C@@H]3CCNC[C@H]3C(=O)NC3CCCCC3)c2[nH]c1=O` (racemic): the values for the IC50 in [8] and in [11] were 39.8 nM and 25.1 µM, respectively. In [9], the logD is recorded as 3.14. In data set [12], the Papp at 3 h is 3.8 ×10⁻⁶ cm/s.

Take `Cc1cc2ccnc(N[C@@H]3CCNC[C@H]3C(=O)NC3CCCCC3)c2[nH]c1=O` (racemic): the IC50 in data set [8] was 794 nM; in [13] it was greater than 39.8 µM; in data set [11], greater than 50.1 µM. Besides, the chromatographic logD in data set [9] was 2.03. This compound showed a Selectivity Index in data set [14] greater than 60. In data set [12], the Papp at 3 h is less than 0.3 ×10⁻⁶ cm/s.

`Cc1cc2c(-c3ccco3)ccc(N[C@@H]3CCNC[C@H]3C(=O)NC3CCCCC3)c2[nH]c1=O` (racemic): the IC50 was 316 nM in [8] and 15.8 µM in [11]. In data set [9], the chromatographic logD was 3.66. In addition, in [14], the Selectivity Index was 50. Moreover, the Papp at 3 h in data set [12] was less than 1 ×10⁻⁶ cm/s.

Turning to `Cc1cc2ccnc(N[C@@H]3CCNC[C@H]3C(=O)NC3CCCC3)c2[nH]c1=O` (relative stereo), the half-inhibitory concentration (IC50) in [8] is 2510 nM; in [13] it was greater than 39.8 µM; in data set [11], 39.8 µM. Besides, the chromatographic logD in data set [9] came to 1.87. Also, the Selectivity Index in data set [14] turned out to be 15.

For the compound `Cc1cc2ccnc(N[C@@H]3CCNC[C@@H]3C(=O)NC3CCCCC3)c2[nH]c1=O` (relative stereo), the figures for the IC50 in [8], in data set [13] and in [11] were 5010 nM, greater than 39.8 µM and greater than 50.1 µM, respectively. This compound came in with a chromatographic logD in [9] of 1.88. The same compound registered a Selectivity Index in data set [14] greater than 10.

In the case of `Cc1cc2ccnc(N[C@@H]3CCNC[C@H]3C(=O)N[C@H](C)C(C)C)c2[nH]c1=O` (relative stereo), the IC50 is 5010 nM in data set [8], greater than 39.8 µM in data set [13] and greater than 50.1 µM in data set [11]. Further, the chromatographic logD in [9] came to 1.89. This compound also returned a Selectivity Index in data set [14] greater than 10.
